By EC50 is commonly meant the concentration giving half of the maximal effect.

The target of the assay is T1, human calcitonin-2 receptor (hCT2R) (Homo sapiens, UniProt P30988).
T1 construct: expressed in transfected cells; host or cells: Chinese hamster ovary (CHO) cells co-transfected with a 6CRE-luciferase reporter; receptor cDNA cloned from the MCF7 cell line
T1 sequence (P30988 25-474): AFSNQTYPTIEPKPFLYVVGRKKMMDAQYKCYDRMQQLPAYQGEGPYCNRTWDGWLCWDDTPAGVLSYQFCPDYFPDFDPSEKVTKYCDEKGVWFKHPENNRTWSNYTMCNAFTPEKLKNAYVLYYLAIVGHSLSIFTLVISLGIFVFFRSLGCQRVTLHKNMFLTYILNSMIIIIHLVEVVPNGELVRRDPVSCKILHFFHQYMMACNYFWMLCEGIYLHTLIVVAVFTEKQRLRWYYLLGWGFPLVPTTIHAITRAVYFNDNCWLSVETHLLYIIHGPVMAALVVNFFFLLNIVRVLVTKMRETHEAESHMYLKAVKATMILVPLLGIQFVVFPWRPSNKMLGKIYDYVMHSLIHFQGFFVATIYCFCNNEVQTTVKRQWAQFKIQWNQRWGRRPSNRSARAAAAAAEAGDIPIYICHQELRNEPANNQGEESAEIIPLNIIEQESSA
Put plainly: HCT2R CRE-luc reporter assay. The format is cell-based. The following applies: agonist activity; CHO-6CRE-luciferase cells co-transfected with hCT2R. The method, then: The compounds of the present invention elicit important and measurable pharmacological responses. As is to be expected, the efficacy of any compound will vary depending upon the particular assay and the particular compound tested.
All recombinant cell line human calcitonin receptor assays were carried out with the human receptor corresponding to GeneBank Accession Number X69920, [See: Molecular Pharmacology 46 (2):246–255, 1994, Cloning and characterization of an abundant subtype of the human calcitonin receptor] cloned from the MCF7 cell line (American Type Tissue Collection, Manassas, Va., USA, Catalog # HTB-22). Human calcitonin receptor (hCT2R) was cloned as a HindIII fragment into plasmid BS SKII. Chinese hamster ovary cells were co-transfected with a 6CRE-luciferase reporter system and hCTR2. HEK cells were transfected with hCTR2.
CHO-6CRE-luciferase cells with or without co-expressed hCTR2 were grown in suspension in commercially available cell culture medium supplemented with 2 mM L-glutamine and 5% fetal bovine serum (FBS). Sixteen hours before each assay, cells were collected and resuspended at 1,000,000 cells/ml in media without FBS. Cells were cultured in spinner flasks at 37° C. in an atmosphere of 5% CO2. At the time of the assay, cells were pelleted by centrifugation and resuspended in media without FBS at a concentration of 250,000 cells/ml. The cell suspension was pipetted into black 96-well microtiter plates (25,000 cells/well) containing test compounds. After a four-hour incubation at 37° C., media was aspirated, followed by addition of 50 microliters of LucLite and PBS (1:1) containing 1 mM CaCl2 and 1 mM MgCl2. The plates were sealed and incubated for 20 minutes in the dark. Luminescent responses were measured using a Packard TopCount.
Structure activity studies were performed on CHO-6CRE-luciferase cells with or without co-transfected hCT2R. Forty-eight hours before each assay, cells were removed with trypsin and plated in 96-well microtiter plates at a concentration of 25–100,000 cells/well. Sixteen hours before each assay, FBS-containing media was removed and replaced with media without FBS. Compounds were added and incubated for four hours at 37° C. After incubation, media was aspirated and 50 microliters of LucLite in PBS (1:1) containing 1 mM CaCl2 and 1 mM MgCl2 were added to each well. Plates were sealed and incubated for 20 minutes in the dark before quantification of luminescence on a Packard TopCount.
Concentration-response curves were calculated and potencies were reported as the concentration of compounds producing half-maximal responses (EC50) or the negative log of the concentration of compounds producing half-maximal responses (pEC50).
Background: A reporter such as luciferase makes a cellular process visible.

For `CCOC(=O)c1c(CCc2ccc(OC)cc2)nc2c(c1-c1ccc(C(=O)NCc3ccco3)cc1)C(=O)N1CCC[C@H]21` [Example 1, Ethyl (9aR)-4-(4-{[(2-furylmethyl)amino]carbonyl}phenyl)-2-[2-(4-methoxyphenyl)ethyl]-5-oxo-7,8,9,9a-tetrahydro-5H-pyrido[2,3-α]pyrrolizine-3-carboxylate], the EC50 was in the range of 10 to 100 nM.

Regarding `CCOC(=O)c1c(CCc2ccc(C(F)(F)F)cc2)nc2c(c1C1CC1C(=O)NCc1ccccc1)C(=O)N1CCC[C@@H]21` (stereo partly drawn) [Example 3, Ethyl (9aS)-4-{2-[(benzylamino)carbonyl]cyclopropyl}-5-oxo-2-{2-[4-(trifluoromethyl)phenyl]ethyl}-7,8,9,9a-tetrahydro-5H-pyrido[2,3-a]pyrrolizine-3-carboxylate], the EC50 fell in the range of 100 to 1000 nM.

Turning to `CCOC(=O)c1c(Cc2ccc(F)cc2F)nc2c(c1-c1ccc(C(=O)NCc3ccco3)cc1)C(=O)N1CCC[C@@H]21` [Example 6, Ethyl (9aS)-2-(2,4-difluorobenzyl)-4-(4-{[(2-furylmethyl)amino]carbonyl}phenyl)-5-oxo-7,8,9,9a-tetrahydro-5H-pyrido[2,3-α]pyrrolizine-3-carboxylate], the EC50 fell in the range of 10 to 100 nM.

On to `CCOC(=O)c1c(CCc2ccc(F)cc2)nc2c(c1-c1ccc(C(=O)NCc3ccco3)cc1)c(=O)n1n2CCC1` [Example 8, Ethyl 2-[2-(4-fluorophenyl)ethyl]-4-(4-{[(2-furylmethyl)amino]carbonyl}phenyl)-5-oxo-8,9-dihydro-5H,7H-pyrazolo[1′,2′:1,2]pyrazolo[3,4-b]pyridine-3-carboxylate], for which the EC50 was ≤ 10 nM.

As for `CCOC(=O)c1c(CCc2ccc(F)cc2)nc2c(c1-c1ccc(C(=O)NCc3ccco3)s1)c(=O)n1n2CCC1` [Example 9, Ethyl 2-[2-(4-fluorophenyl)ethyl]-4-(5-{[(2-furylmethyl)amino]carbonyl}-2-thienyl)-5-oxo-8,9-dihydro-5H,7H-pyrazolo[1′,2′:1,2]pyrazolo[3,4-b]pyridine-3-carboxyl], the EC50 is ≤ 10 nM.

For the molecule `CCOC(=O)c1c(C(F)(F)F)nc2c(c1-c1ccc(C(=O)NCc3cccc(F)c3)cc1)c(=O)n1n2CCC1` [Example 10, Ethyl 4-(4-{[(3-fluorobenzyl)amino]carbonyl}phenyl)-5-oxo-2-(trifluoromethyl)-8,9-dihydro-5H,7H-pyrazolo[1′,2′:1,2]pyrazolo[3,4-b]pyridine-3-carboxylate], the concentration for a half-maximal effect (EC50) was ≥ 1000 nM.

As for `O=C(NCc1ccco1)c1ccc(-c2cc(CCc3ccc(C(F)(F)F)cc3)nc3c2C(=O)N2CCC[C@@H]32)cc1` [Example 14, 4-((9aS)-5-oxo-2-{2-[4-(trifluromethyl)phenyl]ethyl}-7,8,9,9a-tetrahydro-5H-pyrido[2,3-a]pyrrolizin-4-yl)-N-(2-furylmethyl)benzamide], the EC50 lay within 100 to 1000 nM.

As for `CCOC(=O)c1c(CCc2ccc(F)cc2)nc2c(c1-c1cc(C(=O)NC3CCc4ccccc43)cs1)C(=O)N1CCC[C@@H]21` (stereo partly drawn) [Example 15, Ethyl(9aS)-4-{4-[(2,3-dihydro-1H-inden-1-ylamino)carbonyl]-2-thieny}-2-[2-(4-fluorophenyl)ethyl]-5-oxo-7,8,9,9a-tetrahydro-5H-pyrido[2,3-a]pyrrolizine-3-carboxylate], the EC50 was ≤ 10 nM.

Turning to `CCOC(=O)c1c(CCc2ccc(F)cc2)nc2c(c1-c1cc(C(=O)NC3CCc4ccccc43)co1)C(=O)N1CCC[C@@H]21` (stereo partly drawn) [Example 17, Ethyl(9aS)-4-{4-[(2,3-dihydro-1H-inden-1-ylamino)carbonyl]-2-furyl}-2-[2-(4-fluorophenyl)ethyl]-5-oxo-7,8,9,9a-tetrahydro-5H-pyrido[2,3-a]pyrrolizine-3-carboxylate], the EC50 is ≤ 10 nM.

For the molecule `CCOC(=O)c1c(CCc2ccc(F)cc2)nc2c(c1-c1ccc(C(=O)N[C@@H]3CCc4ccccc43)s1)C(=O)N1CCC[C@@H]21` [Example 18, Ethyl(9aS)-4-(5-{[(1R)-2,3-dihydro-1H-inden-1-ylamino]carbonyl}-2-thienyl)-2-[2-(4-fluorophenyl)ethyl]-5-oxo-7,8,9,9a-tetrahydro-5H-pyrido[2,3-a]pyrrolizine-3-carboxylate], the EC50 is ≤ 10 nM.

Consider `CCOC(=O)c1c(Cc2ccc(F)cc2)nc2c(c1-c1ncc(C(=O)N[C@@H]3CCc4ccccc43)s1)C(=O)N1CCC[C@@H]21` [Example 19, Ethyl (9aS)-4-(5-{[(1R)-2,3-dihydro-1H-inden-1-ylamino]carbonyl}-1,3-thiazol-2-yl)-2-(4-fluorobenzyl)-5-oxo-7,8,9,9a-tetrahydro-5H-pyrido[2,3-a]pyrrolizine-3-carboxylate], for which the EC50 was ≤ 10 nM.

With `O=C(N[C@@H]1CCc2ccccc21)c1ccc(-c2cc(Cc3ccc(F)cc3)nc3c2C(=O)N2CCC[C@@H]32)cc1` [Example 20, 4-[(9aS)-2-(4-fluorobenzyl)-5-oxo-7,8,9,9a-tetrahydro-5H-pyrido[2,3-a]pyrrolizin-4-yl]-N-[(1R)-2,3-dihdro-1H-inden-1-yl]benzamide], the EC50 is 10 to 100 nM.

`CCOC(=O)c1c(CCc2ccc(C(F)(F)F)cc2)nc2c(c1-c1nc(C(=O)N[C@@H]3CCc4ccccc43)co1)c(=O)n1n2CCC1` [Example 21, Ethyl 4-(4-{[(1R)-2,3-dihydro-1H-inden-1-ylamino]carbonyl}-1,3-oxazol-2-yl)-5-oxo-2-{2-[4-(trifluoromethyl)phenyl]ethyl}-8,9-dihydro-5H,7H-pyrazolo[1′, 2′:1,2]pyrazolo[3,4-b]pyridine-3-carboxylate]: the EC50 was in the range of 10 to 100 nM.

Consider `CCOC(=O)c1c(Cc2ccc(F)cc2F)nc2c(c1-c1cnc(C(=O)N[C@@H]3CCc4ccccc43)cn1)C(=O)N1CCC[C@@H]21` [Example 22, Ethyl(9aS)-2-(2,4-difluorobenzyl)-4-(5-{[(1R)-2,3-dihydro-1H-inden-1-ylamino]carbonyl}-2-pyrazinyl)-5-oxo-7,8,9,9a-tetrahydro-5H-pyrido[2,3-a]pyrrolizine-3-carboxylate], for which the concentration for a half-maximal effect (EC50) lay in the range of 10 to 100 nM.

With `O=C(NC1CCc2ccccc21)c1ccc(-c2c(NC(=O)C(F)(F)F)c(Cc3ccc(F)cc3F)nc3c2C(=O)N2CCCC32)cc1` [Example 23, 4-{(9aS)-2-(2,4-difluorobenzyl)-5-oxo-3-[(trifluoroacetyl)amino]-7,8,9,9a-tetrahydro-5H-pyrido[2,3-α]pyrrolizin-4-yl}-N-[(1R)-2,3-dihydro-1H-inden-1-yl]benzamide], the concentration for a half-maximal effect (EC50) was in the range of 10 to 100 nM.

For the molecule `O=C(NCc1ccco1)c1ccc(-c2c(NC(=O)C3CCCC3)c(CCc3ccc(C(F)(F)F)cc3)nc3c2C(=O)N2CCC[C@@H]32)cc1` [Example 24, 4-((9aS)-3-[(Cyclopentylcarbonyl)amino]-5-oxo-2-{2-[4-(trifluoromethyl)phenyl]ethyl}-7,8,9,9a-tetrahydro-5H-pyrido[2,3-a]pyrrolizin-4-yl)-N-(2-furylmethyl)benzamide], the EC50 is 100 to 1000 nM.

As to `CCC(=O)Nc1c(CCc2ccc(C(F)(F)F)cc2)nc2c(c1-c1ccc(C(=O)NCc3ccco3)cc1)C(=O)N1CCC[C@@H]21` [Example 25, 4-((9aS)-3-[(Ethylcarbonyl)amino]-5-oxo-2-{2-[4-(trifluoromethyl)phenyl]ethyl}-7,8,9,9a-tetrahydro-5H-pyrido[2,3-α]pyrrolizin-4-yl)-N-(2-furylmethyl)benzamide], the EC50 was 100 to 1000 nM.

With `O=C(NCc1ccco1)c1ccc(-c2c(NC(=O)C3CC3)c(CCc3ccc(C(F)(F)F)cc3)nc3c2C(=O)N2CCC[C@@H]32)cc1` [Example 26, 4-((9aS)-3-[(Cyclopropylcarbonyl)amino]-5-oxo-2-{2-[4-(trifluoromethyl)phenyl]ethyl}-7,8,9,9a-tetrahydro-5H-pyrido[2,3-α]pyrrolizin-4-yl)-N-(2-furylmethyl)benzamide], the EC50 lay within 100 to 1000 nM.

Values taken from US7189851B2, “Condensed heterocyclic compounds as calcitonin agonists” (SmithKline Beecham Corporation, priority 2002, dated 2007).
